Key:
[1] = system: humans; settings: systemically administered to humans; cited from earlier work
[2] = system: mice with DOX cardiomyopathy; experiment: Effect of αGalCer on DOX mice: cardiac function and inflammatory cytokines; type: in vivo; settings: Days 7 and 14
[3] = system: mice with DOX cardiomyopathy; experiment: as above; type: in vivo; settings: for apoptosis of myocardial cells (TUNEL staining) / left ventricular end-systolic dimension (LVDs) / left ventricular fractional shortening rate (FS): DOX group or GalCer+DOX group; for WH/TL and LV/TL: DOX group vs Control, GalCer+DOX group vs DOX group
Method: 10-week-old male C57BL/6J mice were divided into four groups of a Control group, a GalCer group, a DOX group, and a GalCer+DOX group. Hereinafter, the administration method will be described by setting the day when doxorubicin was initially administered as Day 0 (FIG. 4(a)).
PBS (phosphate buffered saline) was intraperitoneally administered (ip) and physiological saline was intravenously administered to the mice of the Control group on Day-7 (7 days before Day 0).
αGalCer (0.1 μg/g) was intraperitoneally administered (ip) to the mice of the GalCer group on Day-7, and physiological saline was intravenously administered thereto on Days 0, 2, and 4.
PBS was intraperitoneally administered (ip) to the mice of the DOX group on Day-7, and doxorubicin (6 mg/kg) was intravenously administered thereto on Days 0, 2, and 4.
αGalCer (0.1 μg/g) was intraperitoneally administered (ip) to the mice of the Galfer+DOX group on Day-7, and doxorubicin (6 mg/kg) was intravenously administered thereto on Days 0, 2, and 4.
The body weight, the blood pressure, the echocardiogram, the organ weight, the expression level of Vα14Jα18, the cardiac function, and inflammatory cytokines of each mouse at the time point of Day 14 were evaluated. Echocardiography was performed by anesthetizing mice with pentobarbital using an ultrasonic recording device EUB-8000 (trade name of Hitachi Medical Corporation). The left ventricular end-diastolic dimension and the left ventricular systolic end-systolic dimension were measured from the echo image, and the left ventricular fractional shortening rate serving as an index of the left ventricular contractility was calculated by an expression of “(left ventricular end-diastolic dimension—left ventricular systolic end-systolic dimension)left ventricular end-diastolic dimension×100”.

[4] = system: Balb/c mice; experiment: Difference between α-GalCer administration and α-GalCer/DC administration (western blotting of Stat1, Stat6); type: in vivo; settings: only α-GalCer administered, 4 days
Method: The differences in expression levels of proteins Stat1 and Stat6 and degrees of phosphorylation in a case where only α-GalCer was administered and in a case where DC was administered as a carrier (that is, α-GalCer/DC was administered, the number of administered cells: 3×10^6) were evaluated by western blotting.
In the test, α-GalCer alone or α-GalCer/DC was administered to the Balb/c mice, and the expression level of each protein in the myocardium 4 days after the administration was evaluated by western blotting.

[5] = system: offspring rat myocardial cells; experiment: Changes in expression levels of Angpt1 due to cytokine administration; type: cell-based; settings: vs CTL group
Method: The changes in the expression levels of an angiogenic factor Angpt1 after administration of IFNγ, IL4, or IL10 to offspring rat myocardial cells were evaluated (each n=3).

[6] = system: cultured myocardial cells; experiment: IFN-γ stimulation of cultured myocardial cells, pPLN and p-Stat1 (SDS-PAGE); type: cell-based
Method: The cultured myocardial cells were stimulated by adding IFN-γ solutions with three different concentrations (1, 10, and 50 ng/mL), and changes in concentration of pPLN were evaluated by ^-the SDS-PAGE method.
The cultured myocardial cells were stimulated by adding 50 ng/mL of an IFN-γ solution, and a change in concentration of pPLN over time was evaluated by the SDS-PAGE method.

[7] = system: primary cultured offspring rat myocardial cells; experiment: Stat phosphorylation in primary cultured offspring rat myocardial cells after IFNγ, IL4 or IL10; type: cell-based
Method: IFNγ, IL4 or IL10 was administered to primary cultured offspring rat myocardial cells, and the changes in phosphorylation of proteins (Stat1, Stat6, and Stat3) were evaluated.

[8] = system: primary cultured myocardial fibroblasts; experiment: Fibrosis gene expression in myocardial fibroblasts after IFNγ, IL4 or IL10; type: cell-based; settings: 1, 10, and 50 ng/mL, vs non-administration group (Veh)
Method: The changes in expression levels of genes (Ctgf Col1a, and Col3a) involved in fibrosis after IFNγ, IL4, or IL10 was administered to primary cultured myocardial fibroblasts were evaluated in order to investigate the mechanism by which the TGF β-Smad signaling system was inhibited due to the administration of α-GalCer/DC (number of administered cells: 3×10^6).
FIG. 38 is a graph showing changes in the expression levels of genes (Ctgf, Col1a, and Col3a) after the administration of IFNγ, IL4, or IL10 to myocardial fibroblasts. IFNγ, IL4, and IL10 were respectively administered at concentrations of 1, 10, and 50 ng/mL. Rps18 was used as an intrinsic control. “Veh” in the graphs represents a non-administration group (Vehicle).

[9] = system: inflammatory cells; myocardial cells; experiment: Cell death after IFNγ administration to inflammatory cells or myocardial cells; type: cell-based
[10] = system: primary cultured myocardial fibroblasts; experiment: Stat expression and phosphorylation in myocardial fibroblasts treated with IFNγ, IL4 or IL10; type: cell-based; settings: vs CTL
Method: The primary cultured myocardial fibroblasts were treated with IFNγ, IL4, or IL10, and each of the expression levels of proteins (Stat1, Stat6, and Stat3) and the phosphorylation thereof were evaluated.

[11] = system: myocardial fibroblasts; experiment: TGFβ administration to myocardial fibroblasts pretreated with IFNγ; type: cell-based
Method: The changes in expression levels of proteins when TGFβ was administered to myocardial fibroblasts pretreated with IFNγ were evaluated.
FIG. 39(a) is a western blot showing the expression levels of proteins (pSmad2, Smad2, pSmad3, and Smad3) when TGFβ was administered to myocardial fibroblasts pretreated with IFNγ (n=4). FIG. 39(b) is a graph quantifying the results of FIG. 39(a). The dose of IFNγ used for the pretreatment is 0, 1, 10, or 50 ng/mL, and the dose of TGFβ is 10 ng/mL. In the control group (CTL), neither IFNγ nor TGFβ was administered. Each graph is shown as a relative value in which the phosphorylation ratio (for example, pSmad2Smad2) in the CTL group is set to 1.0. When TGFβ was administered, Smad2 and Smad3 were phosphorylated, and the expression levels of pSmad2 and pSmad3 were increased.
FIG. 39(c) is a graph showing the expression levels of proteins (Ctgf, Col1a, and Col3a) when TGFβ was administered to myocardial fibroblasts pretreated with IFNγ (n=3 to 6). The dose of IFNγ used for the pretreatment is 0, 1, 10, or 50 ng/mL, and the dose of TGFβ is 10 ng/mL. Each graph is shown as a relative value in which the phosphorylation ratio (for example, pSmad2Smad2) in the CTL group is set to 1.0. In the graph, ** represents P<0.01, which is at a significant level with respect to the expression level of the CTL group.

[12] = system: male C57BL6J mice; experiment: Doxorubicin-induced cardiomyopathy model mice (DOX mouse): body weight, echocardiography, NKT cells and inflammatory cytokines in myocardium; type: in vivo
Method: Doxorubicin (6 mg/kg) was intravenously administered to male
C57BL6J mice aged 10 to 11 weeks from the tail vein once every two days. That is, in a case where the day when doxorubicin was initially administered was set to Day 0, doxorubicin was injected on Day 2 and Day 4 (total of 3 times of administration). At each time point of Day 0, 7, 14, 21, and 28, weight measurement and echocardiography were performed to evaluate the amounts of NKT cells and the expression levels of inflammatory cytokines in the myocardium.

[13] = IFNγ pretreatment 1, 10, or 50 ng/mL, then TGFβ 10 ng/mL
[14] = doxorubicin 6 mg/kg iv Days 0, 2, 4, Days 0 to 28

Molecule: CCCCCCCCCCCCCCCCCCCCCCCCCC(=O)N[C@@H](CO[C@H]1O[C@H](CO)[C@H](O)[C@H](O)[C@H]1O)[C@H](O)[C@H](O)CCCCCCCCCCCCCC [αGalCer, α-Galactosylceramide]
- liver damage [1]: serious liver damage
- expression level of IFNγ [2]: increased
- expression levels of inflammatory cytokines [2]: without decreasing
- apoptosis of myocardial cells (TUNEL staining) [3]: inhibited
- left ventricular end-systolic dimension (LVDs) ([3]; Day 14): improved to the same extent as the mice in the other groups
- left ventricular fractional shortening rate (FS) ([3]; Day 14): improved to the same extent as the mice in the other groups
- WH/TL and LV/TL ([3]; Day 14): improved
- increase of expression level of Vα14Jα18 ([3]; αGalCer 0.1 μg/g ip Day-7, mice with DOX cardiomyopathy, Day 14): approximately 10.6 times
- activation reaction of Stat1 in the myocardium [4]: extremely weak
- dose dependence of Stat1 activation [4]: not observed

Molecule: IFNγ: interferon (IFN)-γ, cytokine added to cultured cells
- expression levels of Angpt1 [5]: increased in a dose-dependent manner
- p-Stat1 over time ([6]; IFN-γ 50 ng/mL): increased immediately after the stimulation
- pPLN over time ([6]; IFN-γ 50 ng/mL): phosphorylated with a slight delay
- phosphorylation of PLN ([6]; IFN-γ 1, 10, and 50 ng/mL): phosphorylated
- phosphorylation of Stat1 by αGalCer/DC observed in myocardial tissues, reproduction in cultured myocardial cells [7]: reproduced
- expression levels of genes (Ctgf, Col1a, and Col3a) [8]: significantly decreased in a dose-dependent manner
- cell death of inflammatory cells [9]: easily caused cell death
- expression levels and phosphorylation of Stat1 [10]: increased
- increase in expression levels of Ctgf, Col1a, and Col3a due to TGFβ [11, 13]: inhibited in a dose-dependent manner
- phosphorylation ratio of Smad2 and Smad3 [11, 13]: decreased in a dose-dependent manner

Molecule: COc1cccc2c1C(=O)c1c(O)c3c(c(O)c1C2=O)C[C@@](O)(C(=O)CO)C[C@@H]3O[C@H]1C[C@H](N)[C@H](O)[C@H](C)O1 [doxorubicin]
- apoptosis of myocardial cells (TUNEL staining) [3]: observed
- left ventricular end-systolic dimension (LVDs) ([3]; Day 14): large
- left ventricular fractional shortening rate (FS) ([3]; Day 14): small
- WH/TL and LV/TL ([3]; Day 14): significantly reduced
- expression level of IL-6 ([12]; Day 7, vs Control): significantly increased
- expression levels of IL-1β and TNF-α ([12]; Day 7, vs Control): decreased
- expression levels of IL-1β, IL-6, and TNF-α ([12]; Day 14, vs doxorubicin non-administration group): all significantly increased
- expression level of Vα14Jα18 ([12]; Days 7 and 14, Control set to 1): decreased
- body weight (BW) [12, 14]: reduced after Day 7 tended to gradually increase
- left ventricular fractional shortening rate (FS) [12, 14]: not improved

Molecule: TGFβ
- expression levels of Ctgf, Col1a, and Col3a ([11]; TGFβ 10 ng/mL, no pretreatment): increased
- expression levels of pSmad2 and pSmad3 ([11]; TGFβ 10 ng/mL, no pretreatment): increased

B1: IL4: interleukin-4, cytokine added to cultured cells (protein, UniProt P05112 25-153, looked up)
Interleukin-4: HKCDITLQEIIKTLNSLTEQKTLCTELTVTDIFAASKNTTEKETFCRAATVLRQFYSHHEKDTRCLGATAQQFHRHKQLIRFLKRLDRNLWGLAGLNSCPVKEANQSTLENFLERLKTIMREKYSKCSS
- expression levels of Angpt1 [5]: not increased
- phosphorylation of Stat1 by αGalCer/DC observed in myocardial tissues, reproduction in cultured myocardial cells [7]: reproduced
- expression levels of genes (Ctgf, Col1a, and Col3a) [8]: the same as those in the non-administration group
- phosphorylation of Stat6 [10]: increased in a dose-dependent manner

B2: IFNγ: interferon (IFN)-γ, cytokine added to cultured cells (protein, UniProt P01579 24-161, looked up)
Interferon gamma: QDPYVKEAENLKKYFNAGHSDVADNGTLFLGILKNWKEESDRKIMQSQIVSFYFKLFKNFKDDQSIQKSVETIKEDMNVKFFNSNKKKRDDFEKLTNYSVTDLNVQRKAIHELIQVMAELSPAAKTGKRKRSQMLFRG
- cell death of myocardial cells [9]: did not cause cell death

B3: IL10: interleukin-10, cytokine added to cultured cells (protein, UniProt P22301 19-178, looked up)
Interleukin-10: SPGQGTQSENSCTHFPGNLPNMLRDLRDAFSRVKTFFQMKDQLDNLLLKESLLEDFKGYLGCQALSEMIQFYLEEVMPQAENQDPDIKAHVNSLGENLKTLRLRLRRCHRFLPCENKSKAVEQVKNAFNKLQEKGIYKAMSEFDIFINYIEAYMTMKIRN
- expression levels of Angpt1 [5]: not increased
- phosphorylation of Stat1 by αGalCer/DC observed in myocardial tissues, reproduction in cultured myocardial cells [7]: not reproduced
- expression levels of genes (Ctgf, Col1a, and Col3a) [8]: the same as those in the non-administration group
- phosphorylation of Stat6 [10]: not found

Reference: patent US20220273709A1, “DEVELOPMENT OF THERAPY FOR IMPROVING MYOCARDIAL CONTRACTION AND METHOD FOR INHIBITING CARDIOMYOCYTE DEATH” (KYUSHU UNIVERSITY, NATIONAL UNIVERSITY CORPORATION, priority 2019, published 2022)
